Measurements as given in paper PMC5034043 (The Journal of Biological Chemistry, 2016).
Read-outs that look alike come from different tables or passages of the source.

Tested on: T1, synaptosomal proteome
T1 construct: from tissue; host or cells: brain synaptosomes of male C57/B6 mice
Assay type: binding, mouse
Description: Synaptosomes were resuspended to 1 mg of protein/ml in HEPES buffer medium (in mM: 140 NaCl, 5 KCl, 5 NaHCO3, 1.2 NaH2PO4, 1 MgCl2, 10 glucose, and 10 HEPES (pH 7.4)). […] The samples were allowed to equilibrate for 5 min before being transferred to a parafilm-sealed 1-mm path length quartz cuvette. The sample was then irradiated for 20 min at a peak bandwidth of 350 nm (Rayonet RPR-3500 lamp) ∼6 cm from the light source. Non-irradiated samples were left in the dark at ambient temperature (22–25 °C) for 20 min. All remaining procedures were conducted with restricted light exposure.
To 750 μg of photolabeled or control synaptosome samples, 40 μl of 10% SDS and 2 μl of 5 mM DTT in water were added. Samples were then vortexed, heated for 10 min at 65 °C, and then briefly cooled. Final concentrations of 150 μM azide-biotin (Click Chemistry Tools), 2 mM tris(3-hydroxypropyltriazolylmethyl)amine (Sigma), 1 mM ascorbic acid (Sigma), and 1 mM CuSO4·5H2O (Sigma) were added to each sample and vortexed vigorously. The samples were left in the dark at ambient temperature (22–25 °C) for 1 h with mild agitation. Directly to each sample 4× volume chilled methanol, 1.5× chilled chloroform, and 3× chilled double distilled H2O were added. Samples were vortexed vigorously and centrifuged at 1,400 × g for 30 min at 4 °C. Both liquid layers were carefully removed, and the protein pellet was washed with 2 ml of 1:1 (v/v) chilled methanol/chloroform. Samples were centrifuged at 3,500 × g for 30 min at 4 °C. Protein pellets were briefly air-dried before further processing.
750 μg of biotin-conjugated protein sample was resuspended in 500 μl of 25 mM NH4HCO3 and 6 M urea in water. Next, 150 μl of 5% Triton X-100 in water, 50 μl of 10% SDS in water, and 1.5 μl of 0.5 M DTT were added. The samples were heated for 15 min at 65 °C. After briefly cooling, 14 μl of 0.5 M iodoacetamide in water was added, and the sample was left in the dark for 45 min. […] The supernatant was diluted to 4 ml with PBS, and 2 ml of PBS containing 100 μl of 50% streptavidin-agarose resin (Thermo Scientific) was added. Biotinylated proteins within the sample were captured over resin overnight at 4 °C with mild agitation. The resin was first washed with 6 ml of 1% SDS in PBS, and then 7 ml of 0.1 M urea in PBS followed by 10 ml of PBS. The resin underwent a final wash with 0.9 ml of 50 mM Tris-HCl and 1 mM CaCl2 in water (pH 8.0) and then resuspended in 200 μl of 50 mM Tris-HCl, 1 mM CaCl2 in water (pH 8.0), and 2 μg of porcine sequencing grade trypsin (Promega). Samples were digested overnight at 37 °C. Samples were then centrifuged at 2,000 × g for 4 min, and digest supernatant was decanted. Beads were washed in 100 μl of PBS centrifuged at 5,200 × g for 5 min, and the wash was combined with the digest supernatant. To the combined sample, trifluoroacetic acid (TFA) was added to 0.4% (v/v) or until pH <2. The sample was desalted with Oasis C18 10-mg columns (Waters) as described previously ([66]). The eluted sample was dried by speed vac and resuspended in 0.1 M HEPES buffer (pH 8.5). […] Appropriate corresponding TMTsixplex^TM-labeled samples were pooled and dried by speed vac. The combined samples were resuspended in 0.5% acetic acid in water and pH-corrected with acetic acid until pH was <2. 40 μg of protein was desalted with C18 stage tips prepared in-house and dried by speed vac.
Samples were resuspended in 10 mM KH2PO4 (pH 2.6), 30% acetonitrile (v/v) in water, and fractionated by off-line strong cation exchange chromatography prior to mass spectrometry (MS) analysis similar to as reported previously ([66]). The full synaptosome proteome control was prepared similarly without TMTsixplex^TM labeling.
All TMT samples were analyzed with three-stage mass spectrometry (MS3) TMTsixplex^TM quantification workflow as described previously ([34]).

[1] = protein A2AGI3 Neuroligin-3 (Nlgn3)
[2] = protein A2AWI7 Endophilin-B2 (Sh3glb2)
[3] = protein D3Z5T2 Armadillo repeat-containing protein 10 (Armc10)
[4] = protein E9Q3V6 Septin-2 (Sept2)
[5] = protein F7C846 Metaxin-1 (Mtx1)
[6] = protein F8WGD9 1-acyl-sn-glycerol-3-phosphate acyltransferase epsilon (Agpat5)
[7] = protein G3UYZ1 Immunoglobulin superfamily member 8 (Igsf8)
[8] = protein G5E829 Plasma membrane calcium-transporting ATPase 1 (Atp2b1)
[9] = protein H3BL44 Calcium-transporting ATPase (Atp2c1)
[10] = protein O09111 NADH dehydrogenase [ubiquinone] 1 beta subcomplex subunit 11, mitochondrial (Ndufb11)
[11] = protein O35114 Lysosome membrane protein 2 (Scarb2)
[12] = protein O35526 Syntaxin-1A (Stx1a)
[13] = protein O35874 Neutral amino acid transporter A (Slc1a4)
[14] = protein O35963 Ras-related protein Rab-33B (Rab33b)
[15] = protein O55022 Membrane-associated progesterone receptor component 1 (Pgrmc1)

CC(C)c1cccc(C(C)C)c1O [propofol, 2,6-diisopropylphenol, reference compound]
% propofol protection (D3Z2J6 Tmx2): 70% | % propofol protection (E9PUL5 Prrt2): 72% | Log2( Mean 'UV/ UV+propofol') (E9PUL5 Prrt2): 1.75 | % propofol protection (P07724 Alb): 75% | Log2( Mean 'UV/ UV+propofol') (P07724 Alb): 1.84 | % propofol protection (P12787 Cox5a): 76% | % propofol protection (P16332 Mut): 72% | Log2( Mean 'UV/ UV+propofol') (P16332 Mut): 1.79 | Log2( Mean 'UV/ UV+propofol') (P23242 Gja1): 1.15 | Log2( Mean 'UV/ UV+propofol') (P35279 Rab6a): 1.22 | % propofol protection (P51150 Rab7a): 73% | Log2( Mean 'UV/ UV+propofol') (P51150 Rab7a): 1.72 | % propofol protection (P54071 Idh2): 71% | Log2( Mean 'UV/ UV+propofol') (P54071 Idh2): 1.75 | Log2( Mean 'UV/ UV+propofol') (P61620 Sec61a1): 1.22 | % propofol protection (P62812 Gabra1): 70% | Log2( Mean 'UV/ UV+propofol') (P63037 Dnaja1): 1.24 | % propofol protection (P63044 Vamp2): 71% | % propofol protection (P63213 Gng2): 75% | Log2( Mean 'UV/ UV+propofol') (P63213 Gng2): 1.98 | % propofol protection (P97445 Cacna1a): 70% | % propofol protection (Q5SW88 Rab1): 73% | Log2( Mean 'UV/ UV+propofol') (Q5SW88 Rab1): 1.71 | % propofol protection (Q8BLF1 Nceh1): 71% | Log2( Mean 'UV/ UV+propofol') (Q8BLF1 Nceh1): 1.72 | % propofol protection (Q8BXV2 Bri3bp): 75% | Log2( Mean 'UV/ UV+propofol') (Q8BXV2 Bri3bp): 1.93 | % propofol protection (Q8C3X2 Ccdc90b): 75% | Log2( Mean 'UV/ UV+propofol') (Q8C3X2 Ccdc90b): 1.94 | % propofol protection (Q8K1Z0 Coq9): 73% | Log2( Mean 'UV/ UV+propofol') (Q8K1Z0 Coq9): 1.79 | % propofol protection (Q8K221 Arfip2): 70% | % propofol protection (Q8R5J9 Arl6ip5): 75% | Log2( Mean 'UV/ UV+propofol') (Q8R5J9 Arl6ip5): 1.93 | % propofol protection (Q9CQQ7 Atp5f1): 70% | % propofol protection (Q9CQS4 Slc25a46): 76% | Log2( Mean 'UV/ UV+propofol') (Q9CXJ4 Abcb8): 1.18 | % propofol protection (Q9CZS1 Aldh1b1): 75% | Log2( Mean 'UV/ UV+propofol') (Q9CZS1 Aldh1b1): 1.96 | % propofol protection (Q9D2P8 Mobp): 76% | Log2( Mean 'UV/ UV+propofol') (Q9D5T0 Atad1): 1.22 | % propofol protection (Q9D6D0 Slc25a27): 75% | % propofol protection (Q9D6K8 Fundc2): 71% | Log2( Mean 'UV/ UV+propofol') (Q9D6K8 Fundc2): 1.61 | % propofol protection (Q9DAS9 Gng12): 76% | % propofol protection (Q9DC70 Ndufs7): 70% | Log2( Mean 'UV/ UV+propofol') (Q9EP69 Sacm1l): 1.23 | % propofol protection (Q9WV54 Asah1): 72% | Log2( Mean 'UV/ UV+propofol') (Q9WV54 Asah1): 1.72 | Log2( Mean 'UV/ UV+propofol') (Q9Z2I0 Letm1): 1.22 | % propofol protection (Q99J08 Sec14l2): 72% | Log2( Mean 'UV/ UV+propofol') (Q99J08 Sec14l2): 1.67 | Log2( Mean 'UV/ UV+propofol') (Q99JY8 Ppap2b): 1.22 | % propofol protection (Q00915 Rbp1): 75% | Log2( Mean 'UV/ UV+propofol') (Q00915 Rbp1): 1.96 | % propofol protection (Q64133 Maoa): 73% | Log2( Mean 'UV/ UV+propofol') (Q64133 Maoa): 1.78 | % propofol protection [1]: 58% | Log2( Mean 'UV/ UV+propofol') [1]: 1.22 | % propofol protection [2]: 56% | Log2( Mean 'UV/ UV+propofol') [2]: 1.04 | % propofol protection [3]: 55% | Log2( Mean 'UV/ UV+propofol') [3]: 1.05 | % propofol protection [4]: 54% | Log2( Mean 'UV/ UV+propofol') [4]: 1.08 | % propofol protection [5]: 55% | Log2( Mean 'UV/ UV+propofol') [5]: 1.11 | % propofol protection [6]: 57% | Log2( Mean 'UV/ UV+propofol') [6]: 1.12 | % propofol protection [7]: 52% | Log2( Mean 'UV/ UV+propofol') [7]: 0.97 | % propofol protection [8]: 55% | Log2( Mean 'UV/ UV+propofol') [8]: 1.01 | % propofol protection [9]: 51% | Log2( Mean 'UV/ UV+propofol') [9]: 0.88 | % propofol protection [10]: 56% | Log2( Mean 'UV/ UV+propofol') [10]: 1.15 | % propofol protection [11]: 53% | Log2( Mean 'UV/ UV+propofol') [11]: 1.00 | % propofol protection [12]: 57% | Log2( Mean 'UV/ UV+propofol') [12]: 1.15 | % propofol protection [13]: 53% | Log2( Mean 'UV/ UV+propofol') [13]: 1.03 | % propofol protection [14]: 55% | Log2( Mean 'UV/ UV+propofol') [14]: 1.06 | % propofol protection [15]: 51% | Log2( Mean 'UV/ UV+propofol') [15]: 1.00
